How the values were obtained:
Type in all cases: cell-based
[1] = molecular target: T1, MRGPRX2 (Homo sapiens, UniProt Q96LB1); assay: MRGPRX2 β-Arrestin assay; set-up: host or cells: PathHunter CHO-K1; conditions: PathHunter CHO-K1 MRGPRX2 β-Arrestin cell line; agonist Cortistatin 14 0.25 μM
T1 sequence (Q96LB1 1-330): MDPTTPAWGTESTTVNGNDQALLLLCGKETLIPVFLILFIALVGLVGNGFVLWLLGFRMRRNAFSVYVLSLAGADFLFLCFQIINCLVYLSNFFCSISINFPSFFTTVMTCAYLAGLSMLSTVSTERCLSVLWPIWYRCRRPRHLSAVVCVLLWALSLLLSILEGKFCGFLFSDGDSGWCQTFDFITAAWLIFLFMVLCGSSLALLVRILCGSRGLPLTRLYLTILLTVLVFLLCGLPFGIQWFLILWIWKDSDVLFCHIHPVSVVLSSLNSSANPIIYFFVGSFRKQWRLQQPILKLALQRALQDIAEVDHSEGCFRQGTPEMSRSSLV
From the text: This assay measures compound inhibition of β-Arrestin recruitment, which is part of the G protein-independent pathway that results from the ligand-activated GPCR phosphorylation by specific GPCR kinases. The PathHunter CHO-K1 MRPGRX2 B-Arrestin Cell line stably expressing ProLink tagged MRGPRX2 and Enzyme Acceptor Tagged B-Arrestin was purchased from Eurofins DiscoverX, (Fremont, CA).
The cells were maintained in culture medium from the Europhins DiscoverX Cell Culture Kit-107 which includes FBS, hygromycin B and G418. For the assay, the cells were harvested and were resuspended with Cell Plating Reagent 2 (Eurofins DiscoverX). Cells were added 10000 cells in 25 μL/well to a 384-well black cell culture plate (Greiner VWR, Radnor, PA) which contained 125 nL/well of compound at a selected serially diluted concentration range or DMSO. The plate was incubated at 37° C. with 5% CO2 for 1 h. 2 μL/well of agonist Cortistatin 14 was diluted in Protein Dilution Buffer, (Eurofins DiscoverX) for a final concentration of 0.25 μM, was added and the plate was incubated at 37° C. with 5% CO2 for 90 min. 14 μL/well of Detection Reagent Mix (PathHunter Detection Kit, Eurofins DiscoverX) was added to the plates and further incubated for 1 h in the dark. Plates were read on the PHERAstar microplate reader (BMG Labtech Cary, NC) measuring luminescence 0.1 to 1 s per well. […]

[2] = molecular target: T1, MRGPRX2; assay: MRGPRX2 FLIPR calcium mobilization assay; set-up: host or cells: CHO-K1; conditions: CHO-K1 cells stably expressing human MRGPRX2; agonist Cortistatin-14 at EC80; Ca2+ release
Method: Chinese hamster ovary (CHO-K1) cells stably expressing human MRGPRX2 were purchased from Genescript (Piscataway, NJ). The cells were maintained in culture medium (Ham's F-12K) containing 10% (v/v) FBS, 200 μg/mL Zeocin, 100 units/mL penicillin G and 100 μg/mL streptomycin (Life Technologies, Carlsbad, CA). For the assay, the cells were harvested and resuspended with culture medium without Zeocin before plating at 8000 cells per well in 20 μL in 384-well black clear bottom cell culture plates (VWR, Radnor, PA). After 24 h culture at 37° C. and 5% CO2, the cells were loaded with 20 μL/well of calcium dye (FLIPR Calcium 6 Assay Kit, Molecular Devices, San Jose, CA) diluted in loading buffer (1× Hank's Balanced Salt Solution (HBSS), 5 mM probenecid, 20 mM 4-(2-hydroxyethyl)-1-piperazineethanesulfonic acid (HEPES), pH 7.4, VWR, Radnor, PA) followed with 45 min. incubation at 37° C. and 40 min. at r.t. in the dark. Cells were then treated with the addition of 10 uL/well test compounds with a range of increasing concentrations diluted in the assay buffer (1×HBSS, 20 mM HEPES, pH 7.4, VWR, Radnor, PA) with FLIPR Penta (Molecular Devices. San Jose, CA) and incubated for 30 min. at r.t. Ca^2+ release was measured with FLIPR Penta with 10 s basal fluorescence measurement, then 12.5 μL of 5× agonist Cortistatin-14 (Tocris, Minneapolis, MN) at final concentration corresponding to the EC80 were added followed with continued fluorescence signal monitoring for an additional 110 s. The base line adjusted (median of first 10s base line) max value of the Relative Fluorescence Unit (RFU) was plotted against compound concentrations. Wells with no compound were served as the positive controls, and wells with high concentration of reference antagonist were used as negative controls. IC50 curves were globally fitted with 3- or 4-parameter Hill equation in a Genedata Screener (Genedata Basel, Switzerland).

[3] = molecular target: T1, MRGPRX2; assay: MRGPRX2 IP1 HTRF assay; set-up: host or cells: CHO-K1; conditions: CHO-K1 cells stably expressing human MRGPRX2; agonist Cortistatin 14 1 μM; IP1 accumulation
Method: This assay measures compound inhibition of myo-Inositol 1 phosphate (IP1) accumulation in CHO-K1 cells. Chinese hamster ovary (CHO-K1) cells stably expressing human MRGPRX2 were purchased from GenScript (Piscataway, NJ).
For the HTRF IP1 determination, an IP-One GqKit (Perkin Elmer Cisbio, Waltham, MA), which includes all reagents and buffers in this protocol, was used. The cells were maintained in culture medium (Ham's F-12K) containing 10% (v/v) FBS, and 200 μg/mL Zeocin. For the assay, the cells were harvested and resuspended in culture medium with 2% FBS and without Zeocin, then were passed through a 40 μm filter. Cells were added at 20000 cells in a 5 μL/well to a 384-well white small volume cell culture plate (Greiner VWR, Radnor, PA) which contained 50 nL/well of test compound serially diluted at a selected concentration range in DMSO. 5 μL/well of prepared 2× Stimulation Buffer2 was then added to plates and was incubated at 37° C. with 5% CO2 for 1 h. 5 μL/well of agonist Cortistatin 14 (Bio-TechneR&D Systems, Minneapolis, MN) in 1×Stimulation Buffer 2, for a 1 μM final concentration, was then added to plates and incubated at 37° C. with 5% CO2 for 1 h. 6 μL/well of 1:20 diluted Detection Reagent Mix (d2 and Cryptate) was added to the plates and incubated for 1 h in the dark. Plates were read on the PHERAstar microplate reader (BMG Labtech Cary, NC) to determine the HTRF ratio of the acceptor and donor emission signals. The IP1 concentrations were calculated from a standard curve following the IP-One GQ kit instructions. Wells with DMSO only and wells with high concentration of reference antagonist were used as controls for normalization. Compound IC50 curves were globally fitted with 3- or 4-parameter Hill equation in a Genedata Screener (Genedata Basel, Switzerland).

IC50 [1] [µM] | IC50 [2] [µM] | IC50 [3] [µM] | SMILES
0.0001 to 0.1 | 0.0001 to 0.1 | 0.0001 to 0.1 | FC(F)(F)c1cn2c(N[C@H]3CCC[C@@H](Nc4nccc5ncccc45)C3)cccc2n1 [Example 3, (1R,3S)—N^1-(1,6-Naphthyridin-5-yl)-N^3-(2-(trifluoromethyl)imidazo[1,2-a]pyridin-5-yl)cyclohexane-1,3-diamine]
0.0001 to 0.1 | 0.0001 to 0.1 | 0.0001 to 0.1 | FC(F)(F)c1cn2c(N[C@H]3CC[C@@H](Nc4nccn5cncc45)CC3)cccc2n1 [Example 5, (1s,4s)-N^1-(Imidazo[1,5-a]pyrazin-8-yl)-N^4-(2-(trifluoromethyl)imidazo[1,2-a]pyridin-5-yl)cyclohexane-1,4-diamine]

Reference: patent publication US20250154174A1, “BICYCLIC HETEROCYCLES AS MRGPRX2 ANTAGONISTS” (Incyte Corporation, priority 2023, published 2025)
